For the assay, the target named is T1, mTOR (Homo sapiens, UniProt P42345).
T1 construct: FLAG; made in house
Briefly: In Vitro mTOR Kinase Assay (Echo), Test (a)(ii). Type of assay: biochemical. The settings on record: table of enzyme assay Test (a)(ii); read-out: Test (a)(ii) IC50. Put shortly:
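Inhibition of truncated mTOR (1362-2549, FLAG-tagged, purified from stably transfected HEK293 cells) is measured as reduced AlphaScreen signal from a phospho-T389-recognising antibody bound to the biotinylated peptide product. Kinase incubation lasts 2 hours at room temperature. Potency is given as IC50.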

T1 sequence (P42345 1362-2549): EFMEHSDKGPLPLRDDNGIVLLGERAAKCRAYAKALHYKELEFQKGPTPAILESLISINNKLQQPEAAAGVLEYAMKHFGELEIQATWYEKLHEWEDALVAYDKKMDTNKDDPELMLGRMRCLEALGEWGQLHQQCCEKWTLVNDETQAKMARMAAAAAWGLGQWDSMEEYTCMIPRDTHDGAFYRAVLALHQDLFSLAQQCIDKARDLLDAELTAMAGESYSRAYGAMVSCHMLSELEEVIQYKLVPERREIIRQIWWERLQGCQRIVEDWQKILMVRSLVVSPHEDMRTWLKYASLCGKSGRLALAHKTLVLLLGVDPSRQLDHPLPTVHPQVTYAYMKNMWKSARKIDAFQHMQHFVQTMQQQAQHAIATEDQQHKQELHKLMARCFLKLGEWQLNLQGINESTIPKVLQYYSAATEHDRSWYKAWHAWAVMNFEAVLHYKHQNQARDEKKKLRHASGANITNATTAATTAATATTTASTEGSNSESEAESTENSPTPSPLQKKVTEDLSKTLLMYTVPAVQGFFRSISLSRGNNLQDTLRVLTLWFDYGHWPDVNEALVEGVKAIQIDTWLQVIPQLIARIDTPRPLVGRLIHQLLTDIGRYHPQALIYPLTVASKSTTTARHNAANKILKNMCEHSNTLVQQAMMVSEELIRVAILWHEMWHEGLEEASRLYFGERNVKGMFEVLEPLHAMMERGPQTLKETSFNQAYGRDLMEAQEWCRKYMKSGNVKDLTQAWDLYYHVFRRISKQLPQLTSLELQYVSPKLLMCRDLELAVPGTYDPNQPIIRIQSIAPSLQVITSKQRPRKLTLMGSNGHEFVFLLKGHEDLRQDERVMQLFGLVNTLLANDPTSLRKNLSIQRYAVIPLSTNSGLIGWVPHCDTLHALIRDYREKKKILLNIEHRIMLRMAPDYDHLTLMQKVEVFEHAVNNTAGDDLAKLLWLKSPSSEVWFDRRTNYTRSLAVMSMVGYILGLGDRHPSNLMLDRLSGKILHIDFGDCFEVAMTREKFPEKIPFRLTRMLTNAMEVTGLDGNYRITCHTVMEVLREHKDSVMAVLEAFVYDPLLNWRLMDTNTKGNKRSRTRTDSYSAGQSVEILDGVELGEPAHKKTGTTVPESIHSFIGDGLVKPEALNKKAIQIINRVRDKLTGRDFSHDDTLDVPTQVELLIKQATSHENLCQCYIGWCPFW

A word on the IC50: it is the concentration at which inhibition is half-maximal. In the case of `CCNC(=O)Nc1ccc(-c2nc(N3CCOC[C@@H]3C)cc(C3(S(=O)(=O)C(C)(C)C)CC3)n2)cc1` [Example 18e, 1-[4-[4-(1-tert-butylsulfonylcyclopropyl)-6-[(3S)-3-methylmorpholin-4-yl]pyrimidin-2-yl]phenyl]-3-ethylurea], the concentration for half-maximal inhibition (IC50) turned out to be 0.654 nM.

Regarding `C[C@H]1COCCN1c1cc(C2(S(=O)(=O)C(C)(C)C)CC2)nc(-c2ccc(NC(=O)NCCN(C)C)cc2)n1` [Example 18f, 1-[4-[4-(1-tert-butylsulfonylcyclopropyl)-6-[(3S)-3-methylmorpholin-4-yl]pyrimidin-2-yl]phenyl]-3-(2-dimethylaminoethyl)urea], the IC50 was found to be 120 nM.

`C[C@H]1COCCN1c1cc(C2(S(=O)(=O)C(C)(C)C)CC2)nc(-c2ccc(NC(=O)NCCO)cc2)n1` [Example 18g, 1-[4-[4-(1-tert-butylsulfonylcyclopropyl)-6-[(3S)-3-methylmorpholin-4-yl]pyrimidin-2-yl]phenyl]-3-(2-hydroxyethyl)urea]: the concentration for half-maximal inhibition (IC50) was determined as 1.23 nM.

For `CCCNC(=O)Nc1ccc(-c2nc(N3CCOC[C@@H]3C)cc(C3(S(=O)(=O)C(C)(C)C)CC3)n2)cc1` [Example 18h, 1-[4-[4-(1-tert-butylsulfonylcyclopropyl)-6-[(3S)-3-methylmorpholin-4-yl]pyrimidin-2-yl]phenyl]-3-propylurea], the IC50 was determined as 6.64 nM.

On to `CNC(=O)Nc1ccc(-c2nc(N3CCOC[C@@H]3C)cc(C3(S(=O)(=O)C(C)(C)C)CC3)n2)cc1` [Example 18i, 1-[4-[4-(1-tert-butylsulfonylcyclopropyl)-6-[(3S)-3-methylmorpholin-4-yl]pyrimidin-2-yl]phenyl]-3-methylurea], for which the 50% inhibitory concentration (IC50) is 5.55 nM.

With `C[C@H]1COCCN1c1cc(C2(S(=O)(=O)C(C)(C)C)CC2)nc(-c2ccc(NC(=O)Nc3ccc(C(F)(F)F)cc3)cc2)n1` [Example 18j, 1-[4-[4-(1-tert-butylsulfonylcyclopropyl)-6-[(3S)-3-methylmorpholin-4-yl]pyrimidin-2-yl]phenyl]-3-[4-(trifluoromethyl)phenyl]urea], the IC50 was 30.3 nM.

Consider `C[C@H]1COCCN1c1cc(C2(S(=O)(=O)C(C)(C)C)CC2)nc(-c2ccc(NC(=O)NC(C)(C)CO)cc2)n1` [Example 18k, 1-[4-[4-(1-tert-butylsulfonylcyclopropyl)-6-[(3S)-3-methylmorpholin-4-yl]pyrimidin-2-yl]phenyl]-3-(1-hydroxy-2-methylpropan-2-yl)urea], for which the IC50 stood at 11.3 nM.

On to `C[C@H]1COCCN1c1cc(C2(S(=O)(=O)C(C)(C)C)CC2)nc(-c2ccc(NC(=O)NCCCO)cc2)n1` [Example 18l, 1-[4-[4-(1-tert-butylsulfonylcyclopropyl)-6-[(3S)-3-methylmorpholin-4-yl]pyrimidin-2-yl]phenyl]-3-(3-hydroxypropyl)urea], for which the concentration for half-maximal inhibition (IC50) came to 10.2 nM.

As for `C[C@H]1COCCN1c1cc(C2(S(=O)(=O)C(C)(C)C)CC2)nc(-c2ccc(NC(=O)Nc3cnn(C)c3)cc2)n1` [Example 18m, 1-[4-[4-(1-tert-butylsulfonylcyclopropyl)-6-[(3S)-3-methylmorpholin-4-yl]pyrimidin-2-yl]phenyl]-3-(1-methylpyrazol-4-yl)urea], the IC50 was 3.15 nM.

For the molecule `C[C@H]1COCCN1c1cc(C2(S(=O)(=O)c3cc(F)cc(F)c3)CC2)nc(-c2ccc(NC(=O)NC3CC3)cc2)n1` [Example 19, 3-Cyclopropyl-1-[4-[4-[1-(3,5-difluorophenyl)sulfonylcyclopropyl]-6-[(3S)-3-methylmorpholin-4-yl]pyrimidin-2-yl]phenyl]urea], the 50% inhibitory concentration (IC50) came to 1.31 nM.

For the molecule `C[C@H]1COCCN1c1cc(C2(S(=O)(=O)c3cc(F)cc(F)c3)CC2)nc(-c2ccc(NC(=O)NC3CCC3)cc2)n1` [Example 19a, 3-cyclobutyl-1-[4-[4-[1-(3,5-difluorophenyl)sulfonylcyclopro-pyl]-6-[(3S)-3-methylmorpholin-4-yl]pyrimidin-2-yl]phenyl]urea], the half-maximal inhibitory concentration (IC50) was 4.25 nM.

These data come from US20090018134A1, “Compounds - 945” (AstraZeneca AB, priority 2007, published 2009).
